One assay deals with A375. As to the kind of experiment: Inhibition of tumor cell growth. In kind it is cell-based. As to conditions: A-375; A375, human melanoma; 48 hour treatment; means ± SD, n=3. As for the experimental part:
(§1) The proliferative inhibitory ability of YLT192 on tumor cells was investigated. […] Inhibition of cell proliferation is a possible approach for cancer treatment. EdU incorporation assay was performed to investigate the anti-proliferative effects of YLT192 against U251 and HCT116 cells. […]
(§2) treatment with YLT192. Data are means ± SD, n=3. cell line cell type IC50(μM)
(§3) HCT116 human colorectal carcinoma 7.4 ±0.5
(§4) A431 human pidermoid carcinoma 7.7 ±0.9
(§5) BxPC-3 human pancreatic cancer 8.2 ±0.6
(§6) Hep G2 human hepatocellular carcinoma 7.9 ±0.5
(§7) SW620 human colorectal carcinoma 7.9 ±1.7
(§8) SKOV-3 human ovarian carcinoma 8.2 ±1.5
(§9) LS147T human colorectal carcinoma 9.0 ±1.1
(§10) PANC-1 human pancreatic cancer 9.8 ±1.9
(§11) BEL7402 human hepatocellular carcinoma 11.3 ±1.1
(§12) MDA-MB-231 human mammary carcinoma 11.9 ±2.1
(§13) SMMC-7721 human hepatocellular carcinoma 12.1 ±1.6
(§14) SPC-A1 human lung cancer 16.4 ±1.4
(§15) MCF-7 human mammary carcinoma 16.8 ±1.7
(§16) Hela human epithelial carcinoma 18.9 ±2.4
(§17) MV4-11 human acute myeloid leukemia 21.9 ±1.9
(§18) COLO-205 human colorectal carcinoma 23.0 ±1.5

The test system of the next assay is B16. As to the kind of experiment: Inhibition of tumor cell growth. In kind it is cell-based. As to conditions: B16, mouse melanoma; 48 hour treatment; means ± SD, n=3. As for the experimental part: as §1, §2, §3, §4, §5, §6, §7, §8, §9, §10, §11, §12, §13, §14, §15, §16, §17, §18
The next assay relates to DU145. As to the kind of experiment: Inhibition of tumor cell growth. It counts as cell-based. Conditions: DU-145; DU145, human prostate cancer; 48 hour treatment; means ± SD, n=3. The method, then:
as §1, §2, §3, §4, §5, §6, §7, §8, §9, §10, §11, §12, §13, §14, §15, §16, §17, §18

For another assay, the system named is NIH-H1975. Kind of assay: Inhibition of tumor cell growth. It counts as cell-based. Conditions: NIH-H1975, human lung cancer; 48 hour treatment; means ± SD, n=3. As for the experimental part:
as §1, §2, §3, §4, §5, §6, §7, §8, §9, §10, §11, §12, §13, §14, §15, §16, §17, §18

A further assay deals with U251. Kind of assay: Inhibition of tumor cell growth. As to conditions: U-251; U251, human glioblastoma; 48 hour treatment; means ± SD, n=3. It counts as cell-based. The method, then: as §1, §2, §3, §4, §5, §6, §7, §8, §9, §10, §11, §12, §13, §14, §15, §16, §17, §18
In a further assay the test system is HCT116 cells. Kind of assay: EdU incorporation assay. It counts as cell-based, human. As to conditions: 24 h treatment, concentration-dependent. As for the experimental part:
(§19) The proliferative inhibitory ability of YLT192 on tumor cells was investigated. […] Inhibition of cell proliferation is a possible approach for cancer treatment. EdU incorporation assay was performed to investigate the anti-proliferative effects of YLT192 against U251 and HCT116 cells.
(§20) Figure 4 Inhibitory effects of YLT192 on tumor cells. (A) YLT192 inhibited U251 and HCT116 cells proliferation. The EdU incorporation assay was conducted on U251 and HCT116 cells after treated with YLT192 for 24 hours. The EdU-positive (red fluorescent staining) cells and Hoechst staining (blue fluorescent staining) cells represented proliferating and total cells in the fluorescent images, respectively (100×). Quantification was shown on the right panels. (B) YLT192 induced apoptosis of HCT116 cells. HCT116 cells were treated with YLT192 or vehicle for 48 hours followed by flow cytometric analysis of annexin V-FITC and PI staining. The proportion of early apoptotic cells (annexin V positive) and late apoptotic cells (annexin V and PI positive cells) were shown. Typical apoptosis-related proteins caspase 3 and Bax were detected by western blot. Each has the expression of β-actin as internal control. […] U251 and HCT116 cells were treated with YLT192 or vehicle for 48 hours and the expression of protein in different signaling pathways were detected by western blot with specific antibodies. […]

In the next assay the test system is U251 cells. Kind of assay: EdU incorporation assay. It counts as cell-based, human. As to conditions: 24 h treatment, concentration-dependent. As for the experimental part:
as §19, §20

The target of a further assay is VEGFR2 (Homo sapiens, UniProt P35968). Kind of assay: Radiometric kinase assay (Millipore Kinase Profile Service). As to conditions: means ± SD, two independent experiments, read-out: inhibition rate at 1 μM (%). Also on record: purchased Millipore (Kinase Profile Service, UK). In kind it is biochemical. As for the experimental part: YLT192 was designed and synthesized in the State Key Laboratory of Biotherapy, Sichuan University (Sichuan, China). Its structural formula and synthesis route was shown in Fig. 1A and Supplementary Figure S1, respectively. The kinase inhibitory activity of YLT192 was measured by the use of radiometric assays provided by Kinase Profile Service (Millipore, UK). The effects of YLT192 on kinase activity were detected using the scintillation proximity assay method at an enzymatic level. […] In addition, the inhibitory activity of YLT192 was examined against platelet-derived growth factor receptor (PDGFR)-related kinases because of their structural similarity to the VEGFR2. […] Moreover, excellent selectivity for VEGFR2 was evident compared with a range of unrelated tyrosine and serine/threonine kinases, including fibroblast growth factor receptor 3, polo-like kinase 1, aurora-A, Axl, MET, protein kinase A, c-RAF etc.
Sequence of VEGFR2 (P35968 20-1356): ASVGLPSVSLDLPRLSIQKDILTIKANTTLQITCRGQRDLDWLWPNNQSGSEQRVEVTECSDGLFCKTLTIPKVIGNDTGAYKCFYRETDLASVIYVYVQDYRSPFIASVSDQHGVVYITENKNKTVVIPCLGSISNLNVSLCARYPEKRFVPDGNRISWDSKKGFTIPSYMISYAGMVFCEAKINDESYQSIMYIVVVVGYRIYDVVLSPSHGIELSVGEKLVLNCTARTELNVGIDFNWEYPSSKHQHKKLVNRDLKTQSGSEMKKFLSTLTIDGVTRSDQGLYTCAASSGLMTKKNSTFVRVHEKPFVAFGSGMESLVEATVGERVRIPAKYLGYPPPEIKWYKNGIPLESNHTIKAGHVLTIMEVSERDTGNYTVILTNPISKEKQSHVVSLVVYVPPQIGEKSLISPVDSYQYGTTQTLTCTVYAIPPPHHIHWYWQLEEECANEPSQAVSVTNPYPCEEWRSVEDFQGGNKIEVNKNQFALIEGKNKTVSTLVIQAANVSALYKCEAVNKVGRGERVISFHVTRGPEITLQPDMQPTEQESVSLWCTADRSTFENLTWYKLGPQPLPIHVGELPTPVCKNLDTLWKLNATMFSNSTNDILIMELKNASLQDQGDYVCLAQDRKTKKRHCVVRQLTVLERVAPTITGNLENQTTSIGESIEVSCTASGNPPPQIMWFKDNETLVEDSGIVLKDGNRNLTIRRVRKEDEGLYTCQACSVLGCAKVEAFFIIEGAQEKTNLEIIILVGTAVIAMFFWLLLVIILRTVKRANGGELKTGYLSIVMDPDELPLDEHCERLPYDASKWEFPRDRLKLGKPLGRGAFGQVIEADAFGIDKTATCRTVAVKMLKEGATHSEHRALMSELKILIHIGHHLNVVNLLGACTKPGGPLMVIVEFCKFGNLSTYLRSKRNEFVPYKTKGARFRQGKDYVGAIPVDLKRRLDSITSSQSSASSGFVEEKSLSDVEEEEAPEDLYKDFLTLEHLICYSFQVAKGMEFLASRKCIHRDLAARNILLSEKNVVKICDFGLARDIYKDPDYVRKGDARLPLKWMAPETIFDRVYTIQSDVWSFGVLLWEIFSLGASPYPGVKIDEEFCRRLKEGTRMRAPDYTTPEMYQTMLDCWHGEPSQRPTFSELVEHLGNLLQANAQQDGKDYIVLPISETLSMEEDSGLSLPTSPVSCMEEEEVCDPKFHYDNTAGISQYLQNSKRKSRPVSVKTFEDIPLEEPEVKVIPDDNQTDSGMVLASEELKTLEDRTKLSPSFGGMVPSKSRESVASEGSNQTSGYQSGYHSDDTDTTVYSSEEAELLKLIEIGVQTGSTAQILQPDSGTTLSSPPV

The values below come from article PMC4129416, “YLT192, a Novel, Orally Active Bioavailable Inhibitor of VEGFR2 Signaling with Potent Antiangiogenic Activity and Antitumor Efficacy in Preclinical Models” (Scientific Reports, 2014).

Each structure is given as a SMILES string.

One may read the IC50 as the midpoint of a concentration-inhibition curve. A lower IC50 goes with higher potency. A word on the inhibition: it is the relative decrease from the control value, in per cent.

As to `CNC(=O)c1cc(Oc2ccc(NC(=O)c3cccc(OC)c3)cc2)ccn1` [YLT192], the IC50 with A375 stood at 12.4 ± 1.1 µM; in the assay on B16 it was 21.2 ± 2.1 µM; in the assay with DU145 it was 22.8 ± 2.6 µM; in the assay with NIH-H1975, 27.3 ± 1.2 µM; in the assay with U251, 6.5 ± 0.8 µM. Also, the “percentage of proliferating cells, EdU incorporation” value in the assay on HCT116 cells and with U251 cells was “decreased a lot” throughout. Further, the inhibition at 1 µM on VEGFR2 turned out to be 93 ± 3%.
